Data as given in US12012407B1, “Pyrazolo[1,5-a]pyrido[4,3-e]pyrimidine-3-carboxylic acids as CK2 inhibitors” (KING FAISAL UNIVERSITY, priority 2024, dated 2024).

Columns and labels:
A375 (melanoma) = test: In vitro cytotoxic activity (MTT) assay, A375; format: cell-based; conditions: Homo sapiens, A-375; A375 (melanoma) cells, exposed for 96 hours; read-out: Cytotoxicity activity IC50 (50% inhibition of cell proliferation)
Protocol: (§1) Compounds 1-16 were screened for their in vitro cytotoxic activity utilizing a 3-(4,5-dimethyl-thiazol-2-yl)-2,5-diphenyltetrazolium bromide (MTT) assay against selected cancer human cell lines consisting of PC3 (prostate), HCT116 (colon), A375 (melanoma), H1299 (lung), MIAPaCa-2 (pancreas), HL60 (leukemia), MCF7 (breast), MDA-MB-231 (breast) (T. Mosmann, J. Immunol. Meth., 1983, 65, 55-63). The cells were cultured at 37° C. in RMPI1640 medium supplemented with 10% fetal bovine serum, 50 IU/mL penicillin, and 50 μg/mL streptomycin in a 5% CO2 incubator. All cells were sub-cultured 3 times/week by trypsinisation. Viable cells were seeded and allowed to adhere for 12 hours before a test drug was added in 96-well plates at an initial density of 1.0×10^5 cells/mL. Tumor cell lines were separately exposed to various concentrations of the tested compounds followed by incubation at a temperature of 37° C. during 96 hours inside a medium of fresh RMPI 1640. Cells were subsequently incubated at 37° C. using MTT at 0.5 mg/mL during 4 hours. After removal of supernatant, formazan crystals were dissolved in isopropanol and the optical density was measured at 570 nm. CX-4945 was used as a positive control.

H1299 (lung) = test: In vitro cytotoxic activity (MTT) assay, H1299; format: cell-based; conditions: Homo sapiens, NCI-H1299; H1299 (lung) cells, exposed for 96 hours; read-out: Cytotoxicity activity IC50 (50% inhibition of cell proliferation)
Protocol: as §1

MIAPaCa-2 (pancreas) = test: In vitro cytotoxic activity (MTT) assay, MIAPaCa-2; format: cell-based; conditions: Homo sapiens, MIA PaCa-2; MIAPaCa-2 (pancreas) cells, exposed for 96 hours; read-out: Cytotoxicity activity IC50 (50% inhibition of cell proliferation)
Protocol: as §1

HCT116 (colon) = test: In vitro cytotoxic activity (MTT) assay, HCT116; format: cell-based; conditions: Homo sapiens, HCT-116; HCT116 (colon) cells, exposed for 96 hours; read-out: Cytotoxicity activity IC50 (50% inhibition of cell proliferation)
Protocol: as §1

[1] = biological target: T1, recombinant human CK2 (RRBB-holoenzyme) (Homo sapiens, UniProt P68400); test: CK2 Kinase Assay (33P-ATP, filter plate); format: biochemical; conditions: final ATP concentration 15 μM, 10 min at 30° C., eight concentrations; read-out: protein kinase CK2 inhibition IC50
T1 construct: purchased Millipore
Protocol: CK2 Kinase Assay was conducted using the protocol as described in Pierre F. et al; J. Med. Chem. 2011, 54, 635-654. The tested compounds in aqueous solution were added at a volume of 10 μL to a reaction mixture comprising 10 μL of assay dilution buffer (ADB; 20 mM MOPS, pH 7.2, 25 mM β-glycerol phosphate, 5 mM EGTA, 1 mM sodium orthovanadate, and 1 mM dithiothreitol), 10 μL of substrate peptide (RRRDDDSDDD, dissolved in ADB at a concentration of 1 mM), 10 μL of recombinant human CK2 (RRBB-holoenzyme, 25 ng dissolved in ADB; Millipore). Reactions were initiated by the addition of 10 μL of ATP solution (90% 75 mMMgCl2, 75 μM ATP (final ATP concentration: 15 μM) dissolved in ADB; 10% [Y-33P] ATP (stock 1 mCi/100 μL; 3000 Ci/mmol (Perkin-Elmer) and maintained for 10 min at 30° C. The reactions were quenched with 100 μL of 0.75% phosphoric acid and then transferred to and filtered through a phosphor cellulose filter plate (Millipore). After washing each well five times with 0.75% phosphoric acid, the plate was dried under vacuum for 5 min and, following the addition of 15 μL of scintillation fluid to each well, the residual radioactivity was measured using a Wallac luminescence counter. The IC50 values were derived from eight concentrations of test inhibitors.

HL60 (leukemia) = test: In vitro cytotoxic activity (MTT) assay, HL60; format: cell-based; conditions: Homo sapiens, HL-60; HL60 (leukemia) cells, exposed for 96 hours; read-out: Cytotoxicity activity IC50 (50% inhibition of cell proliferation)
Protocol: as §1

PC3 (prostate) = test: In vitro cytotoxic activity (MTT) assay, PC3; format: cell-based; conditions: Homo sapiens, Prostate cell; PC3 (prostate) cells, exposed for 96 hours; read-out: Cytotoxicity activity IC50 (50% inhibition of cell proliferation)
Protocol: as §1

MDA-MB-231 (breast) = test: In vitro cytotoxic activity (MTT) assay, MDA-MB-231; format: cell-based; conditions: Homo sapiens; MDA-MB-231 (breast) cells, exposed for 96 hours; read-out: Cytotoxicity activity IC50 (50% inhibition of cell proliferation)
Protocol: as §1

MCF7 (breast) = test: In vitro cytotoxic activity (MTT) assay, MCF7; format: cell-based; conditions: Homo sapiens; MCF7 (breast) cells, exposed for 96 hours; read-out: Cytotoxicity activity IC50 (50% inhibition of cell proliferation)
Protocol: as §1

T1 sequence (P68400 whole entry): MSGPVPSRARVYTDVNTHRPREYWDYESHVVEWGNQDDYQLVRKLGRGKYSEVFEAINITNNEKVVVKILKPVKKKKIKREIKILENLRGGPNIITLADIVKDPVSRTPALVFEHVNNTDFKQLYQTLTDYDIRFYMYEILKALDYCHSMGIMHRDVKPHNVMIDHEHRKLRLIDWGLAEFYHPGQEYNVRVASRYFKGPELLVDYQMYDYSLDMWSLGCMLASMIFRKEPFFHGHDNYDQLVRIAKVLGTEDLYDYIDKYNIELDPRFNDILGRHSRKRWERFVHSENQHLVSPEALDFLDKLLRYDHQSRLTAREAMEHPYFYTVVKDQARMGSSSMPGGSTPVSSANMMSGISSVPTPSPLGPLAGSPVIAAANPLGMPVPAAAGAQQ
T1 sequence (P67870 whole entry partner): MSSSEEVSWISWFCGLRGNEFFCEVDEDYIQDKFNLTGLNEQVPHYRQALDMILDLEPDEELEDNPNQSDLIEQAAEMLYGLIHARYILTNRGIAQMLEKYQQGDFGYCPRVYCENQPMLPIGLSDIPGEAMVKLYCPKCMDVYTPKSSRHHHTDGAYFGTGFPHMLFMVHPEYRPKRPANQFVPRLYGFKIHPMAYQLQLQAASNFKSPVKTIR

O=C(O)c1cnn2c1nc(Nc1cccc(Cl)c1)c1ccncc12 [Compound 1, 5-((3-chlorophenyl)amino)pyrazolo[1,5-a]pyrido[4,3-e]pyrimidine-3-carboxylic acid]
IC50 (A375 (melanoma)): 4.3 µM
IC50 (H1299 (lung)): 1.6 µM
IC50 (MIAPaCa-2 (pancreas)): 1.1 µM
IC50 (HCT116 (colon)): 1.9 µM
IC50 [1]: 0.096 µM
IC50 (HL60 (leukemia)): 3.9 µM
IC50 (PC3 (prostate)): 2.1 µM
IC50 (MDA-MB-231 (breast)): 4.4 µM
IC50 (MCF7 (breast)): 5.2 µM
